For experiment [1], the system named is Balb/c mice. Briefly: Prevention of concanavalin A liver injury. It is filed as in vivo, mouse. As to conditions: Mus musculus, po, 24 h, 10 mg/mL suspension at 10 mL/kg, 30 min prior to Con A, plasma 24 hr after Con A. The procedure:
Five (5) Balb/c mice (female, 6-8 weeks old) per group were used. Liver injury was elicited in the mouse by injection of concanavalin A (Con A) dissolved in saline (2.0 mg/mL) into the tail vein at a volume of 10 mL/kg of the solution (Hepatology, 21, 190-198 (1995)).
The test compounds were suspended in distilled water containing 0.5% CMC, at a concentration of 10 mg/mL. This suspended solution was orally administered to the mouse at a volume of 10 mL/kg, 30 min prior to injection of Con A (group A).
Apart from this group, distilled water containing 0.5% CMC powder, instead of the test compound, was orally administered in the second group of mice (group B). In the 3rd group, nothing was given to the mice (group C).
Twenty four (24) hr after the injection of Con A, blood was collected from the abdominal aorta of the mice and the plasma was isolated while mixing with heparin. Activities of glutamic acid oxaloacetic acid transaminase (AST) and glutamic acid pyruvic acid transaminase (ALT) in the plasma were determined according to the methods described by Nagakawa et al. (J. Pharmacol. Exp. Ther., 264, 496-500 (1993)). From the values obtained inhibitory rates of the test compound against AST and ALT levels which had been increased by injection of Con A, were obtained based on the following equation.
Inhibitory Rate(%)={1−[(A−C)/(B−C)]}×100
A: The average level of AST or ALT in the group A
B: The average level of AST or ALT in the group B
C: The average level of AST or ALT in the group C

In experiment [2] the test system is TNF-α production. As to the kind of experiment: Inhibitory activity against cytokine (TNF-α) production in LPS-stimulated RAW264.7 cells. It is filed as cell-based, mouse. As to conditions: Mus musculus, RAW264.7, 15 h, 1 μM test compound, LPS 10 ng/mL. The method, boiled down: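 Mouse RAW264.7 macrophages (5,000 cells/well) stimulated with 10 ng/mL LPS (final) and treated with test compound at 1 μM final for 15 h at 37 °C. Supernatant mouse TNF-α measured by ELISA; % inhibition = 100−(A−B)/(C−B)×100, using unstimulated and LPS-only controls.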

The mark [3] stands for this setting: read-out: Preventing rate against liver injury, ALT (%).
Where [4] appears, read: read-out: Preventing rate against liver injury, AST (%).

Results on eleven molecules are retold here after US20030134859A1 (SANKYO COMPANY, LIMITED, priority 2000, published 2003).

Where two headings read alike, the source gives them in different places.

`Cc1ccc(NC(=O)c2cc([N+](=O)[O-])ccc2Cl)cc1` [Example 1, N-(4-Methylphenyl)-(2-chloro-5-nitrophenyl)carboxamide]: the inhibition in vivo at 10000 µg/mL, 100 mg/kg worked out at 40.1% in experiment [1] (setting [3]) and 19% in experiment [1] (setting [4]).

In general, inhibition refers to the percentage by which the read-out fell short of the control. A high value points to a response far below the control. As for `O=C(Nc1ccc(-c2ccccc2)cc1)c1cc([N+](=O)[O-])ccc1Cl` [Example 2, N-(4-Phenylphenyl)-(2-chloro-5-nitrophenyl)carboxamide], the inhibition in vivo at 10000 µg/mL, 100 mg/kg in experiment [1] (setting [3]) was determined as 64.5%; in experiment [1] (setting [4]), 4.1%. The same molecule had an inhibition at 1 µM in experiment [2] of 24.5%.

In the case of `O=C(Nc1ccc(-c2ccccn2)cc1)c1cc([N+](=O)[O-])ccc1Cl` [Example 8, N-[4-(2-Pyridyl)phenyl]-(2-chloro-5-nitrophenyl)carboxamide], the inhibition in vivo at 10000 µg/mL, 100 mg/kg is 57% in experiment [1] (setting [3]) and 56% in experiment [1] (setting [4]). Moreover, the inhibition at 1 µM in experiment [2] was determined as 18.9%.

With `Cc1ccc2nc(-c3ccc(NC(=O)c4cc([N+](=O)[O-])ccc4Cl)cc3)sc2c1` [Example 10, N-[4-(6-Methylbenzothiazol-2-yl)phenyl]-(2-chloro-5-nitrophenyl)carboxamide], the inhibition in vivo at 10000 µg/mL, 100 mg/kg in experiment [1] (setting [3]) is 55.9%; in experiment [1] (setting [4]), 49%.

`CCCCCc1ccc(NC(=O)c2cc([N+](=O)[O-])ccc2Cl)cc1` [Example 16, N-(4-Pentylphenyl)-(2-chloro-5-nitrophenyl)carboxamide]: the figures for the inhibition in vivo at 10000 µg/mL, 100 mg/kg in experiment [1] (setting [3]) and in experiment [1] (setting [4]) were 44.4% and 21.4%, respectively. In experiment [2], testing at 1 µM gave an inhibition of 19%.

Turning to `N#Cc1ccc(NC(=O)c2cc([N+](=O)[O-])ccc2Cl)cc1` [Example 20, N-(4-Cyanophenyl)-(2-chloro-5-nitrophenyl)carboxamide], the results for the inhibition in vivo at 10000 µg/mL, 100 mg/kg in experiment [1] (setting [3]) and in experiment [1] (setting [4]) were 67.2% and 77%, respectively.

`O=C(Nc1nc(-c2ccccc2)cs1)c1cc([N+](=O)[O-])ccc1Cl` [Example 35, N-(4-Phenylthiazol-2-yl)-(2-chloro-5-nitrophenyl)carboxamide]: in experiment [1] (setting [3]), the inhibition in vivo at 10000 µg/mL, 100 mg/kg came out at 12.4%.

Turning to `O=C(Nc1nc(-c2cccnc2)cs1)c1cc([N+](=O)[O-])ccc1Cl` [Example 37, N-[4-(3-Pyridyl)thiazol-2-yl)-(2-chloro-5-nitrophenyl)carboxamide], the inhibition in vivo at 10000 µg/mL, 100 mg/kg in experiment [1] (setting [3]) stood at 20.7%. The inhibition at 1 µM in experiment [2] was found to be 16%.

In the case of `COc1cnc(NS(=O)(=O)c2ccc(NC(=O)c3cc([N+](=O)[O-])ccc3Cl)cc2)nc1` [Example 105, N-[4-[(5-Methoxypyrimidin-2-yl)aminosulfonyl]phenyl]-(2-chloro-5-nitrophenyl)carboxamide], the inhibition in vivo at 10000 µg/mL, 100 mg/kg in experiment [1] (setting [3]) came to 22.4%; in experiment [1] (setting [4]), 27.5%.

For `N=C(N)NS(=O)(=O)c1ccc(NC(=O)c2cc([N+](=O)[O-])ccc2Cl)cc1` [Example 106, N-[4-(Amidinoaminosulfonyl)phenyl]-(2-chloro-5-nitrophenyl)carboxamide], the inhibition in vivo at 10000 µg/mL, 100 mg/kg in experiment [1] (setting [3]) is 114%; in experiment [1] (setting [4]), 106%.

For `O=C(Nc1ccc(S(=O)(=O)Nc2cccnc2)cc1)c1cc([N+](=O)[O-])ccc1Cl` [Example 178], the values for the inhibition in vivo at 10000 µg/mL, 100 mg/kg in experiment [1] (setting [3]) and in experiment [1] (setting [4]) were 50.5% and 64.5%, respectively.
